The structures appear in SMILES notation.

Inhibition data for 18 compounds are collected here from ChEMBL document CHEMBL1147496, “Synthesis and anti-inflammatory activity of some [4,6-(4-substituted aryl)-2-thioxo-1,2,3,4-tetrahydro-pyrimidin-5-yl]-acetic acid derivatives” (2004).

The assay deals with Rattus norvegicus. Kind of assay: Anti-inflammatory activity was determined by carangeenan-induced rat paw edema test in albino rats. Also noted: concentration or dose not given beside the values. Format: functional.
Broadly, the Inhibition is the percentage by which the read-out fell short of the control. Turning to `O=C(O)CC1=C(c2ccc(Cl)cc2)N=C(S)NC1c1cccs1` (stereo not drawn), the Inhibition was 16%.
In the case of `Cc1ccc(C2=C(CC(=O)O)C(c3ccccc3)NC(S)=N2)cc1` (stereo not drawn) it was 28%.
In the case of `O=C(O)CC1=C(c2ccc(Cl)cc2)N=C(S)NC1c1ccc(Cl)cc1` (stereo not drawn) it was 25%; in that of `O=C(O)CC1=C(c2ccc(Cl)cc2)N=C(S)NC1c1ccco1` (stereo not drawn), 9%.
Compound `O=C(O)CC1=C(c2ccccc2)N=C(S)NC1c1ccccc1` (stereo not drawn) yielded an Inhibition of 17%.
Next, `O=C(O)CC1=C(c2ccccc2)N=C(S)NC1c1cccnc1` (stereo not drawn): 15%; `O=C(O)CC1=C(c2ccccc2)N=C(S)NC1c1cccs1` (stereo not drawn): 21%; `Cc1ccc(C2=C(CC(=O)O)C(c3ccc(Cl)cc3)NC(S)=N2)cc1` (stereo not drawn): 22%.
As for `COc1ccc(C2NC(S)=NC(c3ccc(Cl)cc3)=C2CC(=O)O)cc1` (stereo not drawn), the Inhibition is on record as 35%.
`COc1ccc(C2NC(S)=NC(c3ccc(C)cc3)=C2CC(=O)O)cc1` (stereo not drawn) returned an Inhibition of 33%.
`Cc1ccc(C2=C(CC(=O)O)C(c3cccs3)NC(S)=N2)cc1` (stereo not drawn) had an Inhibition of 10%.
In the case of `O=C(O)CC1=C(c2ccc(Cl)cc2)N=C(S)NC1c1cccnc1` (stereo not drawn) it was 11%; in that of `O=C(O)CC1=C(c2ccccc2)N=C(S)NC1c1ccc(Cl)cc1` (stereo not drawn), 30%; in that of `O=C(O)CC1=C(c2ccccc2)N=C(S)NC1c1ccco1` (stereo not drawn), 19%.
Turning to `COc1ccc(C2NC(S)=NC(c3ccccc3)=C2CC(=O)O)cc1` (stereo not drawn), the Inhibition came to 32%.
The compound `Cc1ccc(C2=C(CC(=O)O)C(c3ccco3)NC(S)=N2)cc1` (stereo not drawn) gave an Inhibition of 11%.
Next, `Cc1ccc(C2=C(CC(=O)O)C(c3cccnc3)NC(S)=N2)cc1` (stereo not drawn): 7%; `O=C(O)CC1=C(c2ccc(Cl)cc2)N=C(S)NC1c1ccccc1` (stereo not drawn): 20%.
